Measurements published in PMC8398847, “Isavuconazole: Thermodynamic Evaluation of Processes Sublimation, Dissolution and Partition in Pharmaceutically Relevant Media” (Molecules, 2021).
≈ marks a conversion by molar mass, not a printed value. Read-outs that look alike come from different tables or passages of the source.

Assay: Solubility by isothermal saturation (shake flask) method
Format: physicochemical
Procedure: Solubility of drug was measured by the classical shake flask method at five temperatures: 293, 298, 303, 308 and 313 ± 0.2 K. This method determines the concentration of a test substance in a saturated solution, i.e., in equilibrium with the solid phase at a strictly fixed temperature. The compound studied and the selected solvent were placed into glass ampoules and stirred in an air thermostat.
The solid phase was sedimentated after stirring within 2 h. Then, the solutions were centrifuged using a thermostatic centrifuge Biofuge Stratos (Thermo scientific, Germany) at the appropriate temperature of the experiment for 5 min. The solid phase was removed by filtration using a filter MILLEX®HA 0.22 μm (Millipore, Ireland). The resulting solution, if necessary, was diluted with an appropriate solvent and examined on a Carry 50 spectrophotometer (Varian, Palo Alto, CA, USA, Software Version 3.00 (339)) in the ultraviolet region of the spectrum (operating wavelength range λ = 200–400 nm) with an accuracy of 2–4%.
The experimental value of solubility is an average value of three independent experiments. The absorption maximums for isavuconazole in the selected solvents have been determined at 274 nm in buffers solutions (Figure 4) and as 283 nm in hexane and alcohols (Figure S8). The calibration was carried out at room temperature using the solutions with known concentrations of drug in selected solvents.
The mole fraction concentration was calculated based on molarity (S, mol·L^−1) using Equation (8):(8) x=M2S/S(M2−M1)+1000ρ, where M1 and M2 are the molar masses of […], respectively, and ρ (g·cm^−3) is the density of the pure solvents. Densities of buffers solutions (pH 1.2, 2.0 and 7.4) were measured using densitometer DMA 4500 (Anton Paar, Austria) and published earlier. The values of densities using for conversion are given in Table S4 (Supporting Information).

C[C@@H](c1nc(-c2ccc(C#N)cc2)cs1)[C@](O)(Cn1cncn1)c1cc(F)ccc1F [IVZ, Isavuconazole]
solubility (aqueous buffer solutions, pH 7.4, buffers pH 7.4, 2.0, 1.2, 298.15 K, read-out: solubility in aqueous buffer solutions): 8.13 to 42.4 µM (≈ 3.56 to 18.5 µg/mL) | solubility (buffer pH 7.4, pH 7.4, aqueous buffer, thermodynamic from solid, buffer pH 7.4, 293.15 K, read-out: solubility S·10^6): 6.67 µM (≈ 2.92 µg/mL) | solubility (buffer pH 7.4, pH 7.4, aqueous buffer, thermodynamic from solid, buffer pH 7.4, 298.15 K, read-out: solubility S·10^6): 8.13 µM (≈ 3.56 µg/mL) | solubility (buffer pH 7.4, pH 7.4, aqueous buffer, thermodynamic from solid, buffer pH 7.4, 303.15 K, read-out: solubility S·10^6): 10 µM (≈ 4.37 µg/mL) | solubility (buffer pH 7.4, pH 7.4, aqueous buffer, thermodynamic from solid, buffer pH 7.4, 308.15 K, read-out: solubility S·10^6): 12.2 µM (≈ 5.32 µg/mL) | solubility (buffer pH 7.4, pH 7.4, aqueous buffer, thermodynamic from solid, buffer pH 7.4, 313.15 K, read-out: solubility S·10^6): 14.5 µM (≈ 6.37 µg/mL) | solubility in buffer pH 7.4 lower than in pH 1.2 (buffer pH 7.4 vs pH 1.2): 80% | solubility of uncharged forms in buffer pH 7.4 relative to ionized forms in buffer pH 1.2 (buffer pH 7.4 vs pH 1.2): five times lower | solubility (ethanol, 298.15 K, read-out: solubility): 180000 µM (≈ 78700 µg/mL) | solubility (hexane, organic solvent or mixture, thermodynamic from solid, hexane, 293.15 K, read-out: solubility S·10^4): 423 µM (≈ 185 µg/mL) | solubility (hexane, organic solvent or mixture, thermodynamic from solid, hexane, 298.15 K, read-out: solubility S·10^4): 537 µM (≈ 235 µg/mL) | solubility (hexane, organic solvent or mixture, thermodynamic from solid, hexane, 303.15 K, read-out: solubility S·10^4): 677 µM (≈ 296 µg/mL) | solubility (hexane, organic solvent or mixture, thermodynamic from solid, hexane, 308.15 K, read-out: solubility S·10^4): 847 µM (≈ 371 µg/mL) | solubility (hexane, organic solvent or mixture, thermodynamic from solid, hexane, 313.15 K, read-out: solubility S·10^4): 1050 µM (≈ 459 µg/mL) | solubility (seven solvents (buffers pH 1.2, 2.0, 7.4; hexane; alcohols), seven solvents, 293.15 to 313.15 K, read-out: solubility, span over solvents): 6.7 to 300000 µM (≈ 2.93 to 131000 µg/mL)
